Results from patent publication EP4813993A1, “COMPOUND, PREPARATION METHOD THEREFOR, AND USE THEREOF” (Sichuan Kelun Pharmaceutical Research Institute Co., Ltd., priority 2023, dated 2025).

Experiments:
Nav1.8 channels = target: T1, Nav1.8 channels (Homo sapiens, UniProt Q9Y5Y9); assay: Manual patch-clamp, current of stably overexpressed Nav1.8 channels (resting state voltage program); format: cell-based; conditions: for inhibition at 0.001 µM: concentration of 1 nM, read-out: Inhibition rate %
T1 construct: expressed in transfected cells
T1 sequence (Q9Y5Y9 whole entry): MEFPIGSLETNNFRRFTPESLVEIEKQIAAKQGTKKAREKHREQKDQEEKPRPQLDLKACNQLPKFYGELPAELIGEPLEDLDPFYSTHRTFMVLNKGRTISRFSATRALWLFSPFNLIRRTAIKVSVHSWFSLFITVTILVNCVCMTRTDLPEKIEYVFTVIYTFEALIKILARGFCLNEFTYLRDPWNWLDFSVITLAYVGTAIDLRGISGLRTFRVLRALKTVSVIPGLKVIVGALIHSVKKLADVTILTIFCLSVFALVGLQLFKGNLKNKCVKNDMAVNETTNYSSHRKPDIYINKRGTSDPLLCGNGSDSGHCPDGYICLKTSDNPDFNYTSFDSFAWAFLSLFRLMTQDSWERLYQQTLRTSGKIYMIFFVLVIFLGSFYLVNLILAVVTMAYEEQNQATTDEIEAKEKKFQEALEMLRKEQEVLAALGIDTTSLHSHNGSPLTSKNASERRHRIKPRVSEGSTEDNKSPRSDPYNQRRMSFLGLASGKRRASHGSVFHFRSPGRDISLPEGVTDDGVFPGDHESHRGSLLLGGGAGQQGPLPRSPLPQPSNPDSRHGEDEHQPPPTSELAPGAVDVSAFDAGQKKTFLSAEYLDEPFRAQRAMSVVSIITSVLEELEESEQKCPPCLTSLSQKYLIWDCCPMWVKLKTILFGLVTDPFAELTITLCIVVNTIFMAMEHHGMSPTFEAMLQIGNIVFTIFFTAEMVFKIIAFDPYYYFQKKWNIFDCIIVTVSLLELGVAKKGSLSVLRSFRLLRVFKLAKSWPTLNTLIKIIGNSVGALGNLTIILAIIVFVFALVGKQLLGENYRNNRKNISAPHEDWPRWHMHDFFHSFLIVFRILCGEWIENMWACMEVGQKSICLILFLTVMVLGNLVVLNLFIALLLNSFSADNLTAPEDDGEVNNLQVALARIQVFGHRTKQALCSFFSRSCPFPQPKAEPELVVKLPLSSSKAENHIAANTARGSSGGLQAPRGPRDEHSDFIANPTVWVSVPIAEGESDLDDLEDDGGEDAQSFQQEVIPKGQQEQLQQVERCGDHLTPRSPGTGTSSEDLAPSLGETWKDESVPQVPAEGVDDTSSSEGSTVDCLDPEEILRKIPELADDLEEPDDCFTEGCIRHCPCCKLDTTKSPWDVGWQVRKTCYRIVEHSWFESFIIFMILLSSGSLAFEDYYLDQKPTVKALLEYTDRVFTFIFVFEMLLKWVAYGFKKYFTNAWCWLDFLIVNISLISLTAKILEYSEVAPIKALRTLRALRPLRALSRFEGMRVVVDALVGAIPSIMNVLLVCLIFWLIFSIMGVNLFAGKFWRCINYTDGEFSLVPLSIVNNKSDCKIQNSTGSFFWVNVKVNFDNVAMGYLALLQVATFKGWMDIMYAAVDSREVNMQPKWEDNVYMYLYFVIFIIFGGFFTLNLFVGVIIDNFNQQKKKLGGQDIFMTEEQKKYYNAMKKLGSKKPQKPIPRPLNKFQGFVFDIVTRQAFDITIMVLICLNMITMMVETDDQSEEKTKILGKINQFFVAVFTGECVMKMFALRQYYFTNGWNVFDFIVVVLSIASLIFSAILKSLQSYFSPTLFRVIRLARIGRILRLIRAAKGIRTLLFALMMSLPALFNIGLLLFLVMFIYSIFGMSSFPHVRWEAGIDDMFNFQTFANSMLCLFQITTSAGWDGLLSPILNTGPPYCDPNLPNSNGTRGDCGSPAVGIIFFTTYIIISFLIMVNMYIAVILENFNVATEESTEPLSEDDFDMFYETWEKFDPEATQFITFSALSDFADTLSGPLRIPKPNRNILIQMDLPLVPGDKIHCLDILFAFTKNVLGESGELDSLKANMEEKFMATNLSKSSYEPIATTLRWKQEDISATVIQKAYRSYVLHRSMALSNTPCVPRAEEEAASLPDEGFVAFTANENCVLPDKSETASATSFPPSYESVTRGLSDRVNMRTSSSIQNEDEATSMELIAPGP
Summary of the method: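 Whole-cell manual patch clamp on cells stably overexpressing Nav1.8, held at -120 mV and stepped to 0 mV for 50 ms every 20 s (resting-state protocol). Compounds were perfused in ascending concentrations, each for 5 min or until stable; block of peak current was calculated at steady state.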

incision pain model [1] = assay: Incision pain model in ICR mice, Von Frey test; format: in vivo; conditions: 50 mg/kg single dose, Mean + SEM, n = 10
[2] = Tissue distribution study (dorsal root ganglia) in SD rats; format: in vivo; conditions: male, rat, oral administration 10 mg/kg
Description: Experimental Example 5: Tissue distribution study of compounds in SD rats
Experimental animals: SD rats, male, 6-8 weeks old.
(§1) Compound preparation: 5% (final preparation volume) of DMSO was added to dissolve the test compound, and then 10% (final preparation volume) of Cremophor EL and 85% Saline were sequentially added.
(§2) Experimental design: The test compounds were administered to SD rats as a single dose via oral administration (10 mg/kg; n = 3, 3 time points). Blood samples were collected at 0.5 h, 2 h, and 6 h after oral administration, followed by sacrifice of the animals. Dorsal root ganglia were collected, rinsed with ice-cold normal saline to remove residual blood, blotted dry with absorbent paper, and stored at -70 °C for analysis.
Sample test: The concentrations of the designated compound drugs in plasma and tissues were determined by the LC-MS/MS method.

incision pain model [3] = assay: Incision pain model in ICR mice, Von Frey test; format: in vivo; conditions: Mean + SEM, n = 10; for PWT 50% value (g) Post-surgery, Preadministration / PWT 50% value (g) Pre-surgery: 50 mg/kg group; for PWT 50% value (g) Post-surgery, Preadministration: baseline before administration; for PWT 50% value (g) Pre-surgery: baseline before surgery; for PWT 50% value (g) 0.5 h / PWT 50% value (g) 2 h / PWT 50% value (g) 4 h: 50 mg/kg single dose; for PWT 50% value (g) 0.5 h: 0.5 h after administration; for PWT 50% value (g) 2 h: 2 h after administration; for PWT 50% value (g) 4 h: 4 h after administration
Description: Experimental Example 6: Pharmacodynamic effect study of compounds in incision pain model in ICR mice Experimental animals: ICR mice, male, 28-35 g.
as §1
A plantar incision pain model was established in mice via surgery before the administration and test. Mice were placed in an anesthesia induction chamber and given 3%-4% isoflurane for anesthesia induction. After the anesthesia induction, a breathing mask was applied, and the isoflurane concentration was adjusted to 1%-2% to prevent the mice from suffering pain during the surgery. Each mouse was placed in a supine position, and the surgical site was disinfected with alcohol and iodophor. Under sterile conditions, a 0.5 cm longitudinal incision was made on the left hind paw surface, 0.2 cm away from the heel, extending toward the toes. The skin and fascia were incised; the plantar muscle was separated, slightly lifted, and longitudinally incised. The skin was then sutured with 5-0 sutures and disinfected.
2. Administration and test
The Von Frey test was performed once before the surgery. On the second day after animal modeling, the test was repeated, and animals meeting the baseline requirements were selected for enrollment. The animals were randomly grouped based on the 50% PWT values, with 10 animals per group. Administration was performed under a double-blind test protocol. The 50% PWT of the animals was measured separately before administration (baseline) and at 0.5 h, 2 h, and 4 h after administration, and a single dose was administered. The model control group was given normal saline, while the compound groups were given the compounds according to the administration doses in the table below.

[4] = Pharmacokinetic study in ICR mice; format: in vivo; conditions: mouse
Description: Experimental Example 3: Pharmacokinetic study of compounds in ICR mice
(§3) Experimental animals: ICR mice, male, 6-8 weeks old.
as §1
The injection group was given free access to food and water. The oral group was fasted overnight (> 12 h) with free access to water, and was fed 4 h after administration. Blood samples were collected from the jugular vein of ICR mice at the following time points: 5 min, 15 min, 0.5 h, 1 h, 2 h, 4 h, 8 h, and 24 h after injection administration; 15 min, 0.5 h, 1 h, 2 h, 4 h, 6 h, 8 h, and 24 h after oral administration. The collected blood samples were anticoagulated, placed in an ice bath, and then centrifuged for 5 min to separate plasma. The plasma was stored at -70 °C for analysis.
Sample test: The concentrations of the designated compound drugs in plasma were determined by the LC-MS/MS method; the main pharmacokinetic parameters were calculated using the Winnolin 8.3 non-compartmental model. Pharmacokinetic test results of some compounds of the present disclosure in ICR mice

[5] = Tissue distribution study (dorsal root ganglia) in ICR mice; format: in vivo; conditions: male, mouse, oral administration 20 mg/kg
Description: Experimental Example 4: Tissue distribution study of compounds in ICR mice
as §3, §1
as §2, with “ICR mice” for “SD rats”, “(20” for “(10”, “0.25” for “0.5”, “12” for “6”, “ganglia (DRG)” for “ganglia”
Sample test: The concentrations of the compound drugs in dorsal root ganglia were determined by the LC-MS/MS method.

[6] = system: acetic acid writhing model; assay: Mouse acetic acid writhing model; format: in vivo, ICR mice
Description: Experimental Example 11: Pharmacodynamic effect study of compounds in mouse acetic acid writhing model
Experimental animals: ICR mice, male, 20-24 g.
Compound preparation: 5% (final preparation volume) of DMSO was added to dissolve the test compound, and then 10% (final preparation volume) of Cremophor EL and 85% Saline were sequentially added; an appropriate amount of Etoricoxib was weighed, 5% (final preparation volume) of DMSO was added to dissolve the test compound, and then 5% (final preparation volume) of HS-15 and 90% Saline were sequentially added.
• 1. The mice were randomly grouped based on the body weight for model establishment, with 10 animals per group. A 0.8% (v/v) acetic acid solution was intraperitoneally injected at an injection volume of 10 mL/kg. • 2. Administration and test
Administration was performed 60 min before modeling. After the acetic acid solution was injected, the number of writhing responses in mice was observed. […] The number of writhing responses was observed and recorded during two intervals: 0-15 min and 15-30 min, with a total observation duration of 30 min. Inhibition rate = (number of writhing responses in control group - number of writhing responses in administration group)/number of writhing responses in control group × 100%. The model control group was given normal saline, the positive control group 1 was given etoricoxib at 20 mg/kg, the positive control group 2 was given VX-548 at 50 mg/kg, and the remaining groups were given the compounds of the present disclosure according to the administration doses in the table below.

[7] = male, plasma, Oral administration, 10 mg/kg
[8] = male, plasma, iv, Injection (i.v.), 2 mg/kg

IC50 (Nav1.8 channels)	concentration at 0.5 h ([2]; Time 0.5 h)	concentration at 2 h ([2]; Time 2 h)	concentration at 6 h ([2]; Time 6 h)	AUC(0-inf) [4, 7]	AUC(0-inf) [4, 8]	inhibition at 0.001 µM (Nav1.8 channels)	AUC(0-inf) ([4]; in vivo, Oral administration, 10 mg/kg)	AUC(0-inf) ([4]; in vivo, iv, Injection (i.v.), 2 mg/kg)	Compound	PWT 50% value (g) AUC0-8h (incision pain model [1])	PWT 50% value (g) Post-surgery, Preadministration (incision pain model [3])	PWT 50% value (g) Pre-surgery (incision pain model [3])	PWT 50% value (g) 0.5 h (incision pain model [3])	PWT 50% value (g) 2 h (incision pain model [3])	PWT 50% value (g) 4 h (incision pain model [3])	concentration at 0.25 h [5]	concentration at 2 h [5]	concentration at 12 h [5]	Number of writhing responses ([6]; ICR mice, Dose 50 mg/kg, 60 min before 0.8% acetic acid i.p., 30 min observation, Mean + SD, n = 10)	inhibition of the writhing effect compared with VX-548 ([6]; mouse acetic acid writhing model)
0.15 nM	115 ng/g	768 ng/g	557 ng/g	10200 ng·h/mL	2090 ng·h/mL				COc1c([C@@H]2C[C@](C)(C(F)(F)F)SC2C(=O)Nc2ccnc([N+](=O)[O-])c2)ccc(F)c1F (stereo in doubt) [a-7-A, (2S,3S,5R)-3-(3,4-difluoro-2-methoxyphenyl)-5-methyl-N-(2-nitropyridin-4-yl)-5-(trifluoromethyl)tetrahydrothiophene-2-carboxamide]	3.62 ± 1.28 g·h	0.27 ± 0.13 g	1.43 ± 0.43 g	0.47 ± 0.16 g	0.72 ± 0.35 g	0.47 ± 0.25 g					
				34100 ng·h/mL	9490 ng·h/mL	94.1%			COc1c([C@@H]2C[C@](C)(C(F)(F)F)S[C@H]2C(=O)Nc2ccc(F)c(S(N)(=O)=O)c2)ccc(F)c1F [Compound 233-A, (2R,3S,5R)-3-(3,4-difluoro-2-methoxyphenyl)-N-(4-fluoro-3-sulfamoylphenyl)-5-methyl-5-(trifluoromethyl)tetrahydrothiophene-2-carboxamide]	3.21 ± 1.35 g·h	0.22 ± 0.02 g	1.54 ± 0.4 g	0.42 ± 0.34 g	0.62 ± 0.32 g	0.41 ± 0.21 g	400 ng/g	2850 ng/g	489 ng/g		
				2580 ng·h/mL	1400 ng·h/mL	77.8%			COc1c([C@@H]2C[C@](C)(C(F)(F)F)S[C@H]2C(=O)Nc2ccn3nncc3c2)ccc(F)c1F [Compound 246-A, (2R,3S,5R)-3-(3,4-difluoro-2-methoxyphenyl)-5-methyl-N-((1,2,3)triazolo(1,5-a)pyridin-5-yl)-5-(trifluoromethyl)tetrahydrothiophene-2-carboxamide]	2.53 ± 0.82 g·h	0.24 ± 0.03 g	1.4 ± 0.17 g	0.32 ± 0.12 g	0.33 ± 0.16 g	0.4 ± 0.27 g					
							8130 ng·h/mL	2030 ng·h/mL	COc1c([C@@H]2C[C@](C)(C(F)(F)F)S[C@H]2C(=O)Nc2ccc3c(c2)S(=O)(=O)NC3)ccc(F)c1F [Compound a-37-A, (2R,3S,5R)-3-(3,4-difluoro-2-methoxyphenyl)-N-(1,1-dioxide-2,3-dihydrobenzo[d]isothiazol-6-yl)-5-methyl-5-(trifluoromethyl)tetrahydrothiophene-2-carboxamide]	2.71 ± 0.39 g·h	0.24 ± 0.03 g	1.43 ± 0.33 g	0.33 ± 0.12 g	0.55 ± 0.18 g	0.32 ± 0.1 g					
0.017 nM									COc1c([C@@H]2C[C@](C)(C(F)(F)F)S[C@H]2C(=O)Nc2cccc(S(=O)(=O)N=[N+]=[N-])c2)ccc(F)c1F [a-65-A, 3-((2R,3S,5R)-3-(3,4-difluoro-2-methoxyphenyl)-5-methyl-5-(trifluoromethyl)tetrahydrothiophene-2-carboxamido)benzenesulfonyl azide]	4.87 ± 0.97 g·h	0.22 ± 0.02 g	1.13 ± 0.08 g	0.38 ± 0.16 g	0.43 ± 0.17 g	0.51 ± 0.2 g					

Compound	IC50 (Nav1.8 channels)	concentration at 0.5 h ([2]; Time 0.5 h)	concentration at 2 h ([2]; Time 2 h)	concentration at 6 h ([2]; Time 6 h)	AUC(0-inf) [4, 7]	AUC(0-inf) [4, 8]	inhibition at 0.001 µM (Nav1.8 channels)	AUC(0-inf) ([4]; in vivo, Oral administration, 10 mg/kg)	AUC(0-inf) ([4]; in vivo, iv, Injection (i.v.), 2 mg/kg)	PWT 50% value (g) AUC0-8h (incision pain model [1])	PWT 50% value (g) Post-surgery, Preadministration (incision pain model [3])	PWT 50% value (g) Pre-surgery (incision pain model [3])	PWT 50% value (g) 0.5 h (incision pain model [3])	PWT 50% value (g) 2 h (incision pain model [3])	PWT 50% value (g) 4 h (incision pain model [3])	concentration at 0.25 h [5]	concentration at 2 h [5]	concentration at 12 h [5]	Number of writhing responses ([6]; ICR mice, Dose 50 mg/kg, 60 min before 0.8% acetic acid i.p., 30 min observation, Mean + SD, n = 10)	inhibition of the writhing effect compared with VX-548 ([6]; mouse acetic acid writhing model)
COc1c([C@@H]2C[C@](C)(C(F)(F)F)S[C@H]2C(=O)Nc2ccnc(N=[N+]=[N-])c2)ccc(F)c1F [a-20-A, (2R,3S,5R)-N-(2-azidopyridin-4-yl)-3-(3,4-difluoro-2-methoxyphenyl)-5-methyl-5-(trifluoromethyl)tetrahydrothiophene-2-carboxamide]	0.001 nM				15400 ng·h/mL	1990 ng·h/mL				3.48 ± 0.82 g·h	0.29 ± 0.09 g	1.14 ± 0.21 g	0.39 ± 0.14 g	0.49 ± 0.18 g	0.57 ± 0.22 g	1040 ng/g	5900 ng/g	1910 ng/g	17 ± 11	better than VX-548
